Columns and labels:
[1] = test system: Pfa1 Gpx4−/− overexpressing chimeric FSP1 C1; assay: Cell viability (Alamar blue), chimeric construct C1; type: cell-based, murine; settings: Mus musculus; chimeric construct C1 (human residues 1 to 59); x axis iFSP1 (μM); read-out: IC50 (dose-response toxicity)
Protocol: (§1) Cell Lines. 4-hydroxytamoxifen (TAM)-inducible Gpx4^−/− murine immortalized fibroblasts (Pfa1) were reported previously. These cells harbor two loxP-flanked Gpx4 alleles and stably express TAM inducible Cre recombinase allowing the genetic deletion of Gpx4 at will. For all experiments using Gpx4^−/− the well were treated with 4-hydroxitamoxifen (TAM) 1 µM. All cells were cultured with were cultured in DMEM-high glucose (4.5 g glucose/L) with 10% fetal bovine serum (FBS), Glutamax, and 1% penicillin/streptomycin (Gibco, Thermo Fischer) at 37 °C with 5% CO2 and verified to be negative for mycoplasma.
(§2) Cell viability assays. Alamar Blue method: Cells were seeded on 96-well plates (2000 cells per well) and treated with the compounds RSL3, iFSP1 and (liproxstatin-1) after plating. Cell viability was assessed 48 h (unless stated otherwise) after treatment using Alamar Blue as an indicator of viable cells. Alamar blue solution was made by dissolving of 1 g resazurin sodium salt (Thermo Fischer) in 200 mL sterile PBS and sterile filtrated through a 0.22 µm filter. Stock solutions were stored at 4 °C. The working solution was made freshly by adding 200 µL of the stock solution to 25 mL growth media. After 2–4 h incubation time, viability was estimated by measuring the fluorescence using a 540/35 excitation filter and a 590/20 emission on a Spark® microplate reader (Tecan, Zürich, Switzerland). […]

[2] = test system: Pfa1 Gpx4−/− overexpressing chimeric FSP1 C5; assay: Cell viability (Alamar blue), chimeric construct C5; type: cell-based, murine; settings: Mus musculus; chimeric construct C5 (human residues 241 to 300); x axis iFSP1 (μM); read-out: IC50 (dose-response toxicity)
Protocol: as §1, §2

[3] = test system: Pfa1 Gpx4−/− cells overexpressing murine FSP1 (mFSP1); assay: Cell viability (Alamar blue), dose-response toxicity in Gpx4-knockout cells expressing mFSP1; type: cell-based
Protocol: as §1, §2

[4] = test system: Pfa1 Gpx4−/− overexpressing chimeric FSP1 C3; assay: Cell viability (Alamar blue), chimeric construct C3; type: cell-based, murine; settings: Mus musculus; chimeric construct C3 (human residues 121 to 180); x axis iFSP1 (μM); read-out: IC50 (dose-response toxicity)
Protocol: as §1, §2

[5] = test system: Pfa1 Gpx4−/− overexpressing chimeric FSP1 C6; assay: Cell viability (Alamar blue), chimeric construct C6; type: cell-based, murine
Protocol: as §1, §2

SMILES: Cc1ccc(-c2c(C#N)c(N)n3c(nc4ccccc43)c2C#N)cc1 [iFSP1]
- IC50 [1]: 9.41 µM
- IC50 [2]: 6.82 µM
- IC50 ([3]; Mus musculus, mFSP1 WT, Δ curve (no Lip-1), Alamar blue, x axis iFSP1 (μM)): 7.48 µM
- induction of ferroptosis ([3]; murine isoform): could only induce ferroptosis in the cell line expressing the human isoform
- IC50 [4]: 8.71 µM
- IC50 ([5]; Mus musculus, chimeric construct C6 (human residues 301 till 373), x axis iFSP1 (μM), read-out: IC50 (dose-response toxicity)): 1.64 µM
- induction of ferroptosis ([5]; chimera C6): underwent ferroptosis upon iFSP1 treatment
